Assay results as given in patent US20110097274A1, “Carbon-11 and fluorine-18 labeled radioligands for positron emission tomography (PET) imaging for the brain serotonin transporters” (priority 2002, published 2011).
“And” between values parts separate entries of the source, which are not always exact repeats. Equal entries are not always repeated.

Test system: SERT
Assay: Baboon PET imaging: brain uptake, kinetic analysis and SERT parameters
Format: in vivo
Protocol: PET imaging protocol: PET experiments (n=20) were performed at Columbia University. Two adult male baboons (baboon A and B) were studied twice with each of the 5 radioligands (4 experiments per radioligand). All experiments took place within a 9-month period. Baboons A and B were 31 kg and 21 kg in weight at the beginning of the experimental period and 28 and 22 kg at the end, respectively. Test and retest experiments with the same radioligand were obtained on different days, with an average interval of 117±53 days.
Experiments were performed according to protocols approved by the Columbia-Presbyterian Medical Center Institutional Animal Care and Use Committee. Fasted animals were immobilized with ketamine (10 mg/kg i.m.), and anesthetized with 1.8% isoflurane via an endotracheal tube. Vital signs were monitored every 10 minutes and the temperature was kept constant at 37° C. with heated water blankets. An i.v. perfusion line was used for hydration and injection of radioligands and nonradioactive drugs. A catheter was inserted in a femoral artery for arterial blood sampling. Head was positioned at the center of the field of view as defined by imbedded laser lines. PET imaging was performed with the ECAT EXACT HR+PET scanner (Siemens/CTI, Knoxville, Tenn.). In 3D mode, this camera provides an in-plane resolution of 4.3 mm, 4.5 mm, 5.4 mm and 8.0 mm full width at half maximum (FWHM) at a distance of 0, 1, 10 and 20 cm from the center of the field of view, respectively (Brix et al., 1997). A 15 minute transmission scan was obtained prior to radioligand injection for attenuation correction. Activity was injected i.v. over 30 seconds. […] Emission data was collected in the 3D mode for 91 minutes as 21 successive frames of increasing duration (6*10 seconds, 2*1 minutes, 4*2 minutes, 2*5 minutes, and 7*10 minutes).
Image analysis: A Magnetic Resonance Image (MRI) of each baboon's brain was obtained for the purpose of identifying the regions of interest (ROI) (T1-weighted axial MRI sequence, acquired parallel to the anterior-posterior commissure, TR 34 msec, TE 5 msec, flip angle of 45 degrees, slice thickness is 1.5 mm, zero gap, matrix 1.5 mm×1 mm×1 mm voxels). The following regions were drawn on the MR images: cerebellum, midbrain, thalamus, striatum, hippocampus, temporal cortex, cingulate cortex and occipital cortex.
PET emission data were attenuation-corrected using the transmission scan, and frames were reconstructed using a Shepp filter (cutoff 0.5 cycles/projection rays). Reconstructed image files were then processed using the image analysis software MEDx (Sensor Systems, Inc., Sterling, Va.). An image was created by summing all the frames, and this summed image was used to define the registration parameters with the MR image, using between-modality automated image registration (AIR) algorithm (Woods et al., 1993). Registration parameters were then applied to the individual frames for registration to the MR data set. Regional boundaries were transferred to the individual registered PET frames, and time-activity curves were measured and decay-corrected. Right and left regions were averaged. For a given animal, the same regions were used for all radioligands.
Brain uptake: Total brain uptake was expressed as percentage of the injected dose per gram of tissue (% ID g^−1) in a region encompassing the entire brain. Regional peak time was defined as the mid-time of the frame associated with the highest activity value. To estimate the degree of wash-out from the brain captured during the scan interval (91 minutes), the decrease in activity from the peak frame to the last frame was calculated and expressed in percentage of the peak activity.
Kinetic analysis: Regional total distribution volumes (VT, mL g^−1) were derived with kinetic analysis of the regional time-activity curves, using the arterial plasma concentrations as input function. […]

[1] = BP = VT ROI − VT CER, baboons, mean ± SD of four experiments
[2] = Mean ± SD of four experiments in two baboons
[3] = baboon A, experiments of FIGS. 5-9 (FIG. 10)
[4] = baboons, mean ± SD of four experiments
[5] = last scan 90 minutes, baboons, mean ± SD of four experiments
[6] = one-tissue compartment model, baboons, mean ± SD of four experiments

CN([11CH3])Cc1ccccc1Sc1ccc(CF)cc1N [[^11C]AFM, [^11C]2-[2-(Dimethylaminomethyl)phenylthio]-5-fluoromethylphenylamine]
Binding potential Cingulate Cortex [1]: 8.5 ± 1.0 mL/g
Binding potential Hippocampus [1]: 20.9 ± 2.5 mL/g
Binding potential Midbrain [1]: 65.8 ± 11.7 mL/g
Binding potential Occipital Cortex [1]: 7.3 ± 1.3 mL/g
Binding potential Striatum [1]: 31.3 ± 6.5 mL/g
Binding potential Temporal Cortex [1]: 11.8 ± 0.9 mL/g
Binding potential Thalamus [1]: 71.3 ± 16.5 mL/g
Equilibrium specific to non-specific partition coefficient (V3″) Cingulate Cortex (Baboon A, single experiment): 0.30 and 0.26
Equilibrium specific to non-specific partition coefficient (V3″) Hippocampus (Baboon A, single experiment): 0.70 and 0.75
Equilibrium specific to non-specific partition coefficient (V3″) Midbrain (Baboon A, single experiment): 2.13 and 2.18
Equilibrium specific to non-specific partition coefficient (V3″) Occipital Cortex (Baboon A, single experiment): 0.29 and 0.30
Equilibrium specific to non-specific partition coefficient (V3″) Striatum (Baboon A, single experiment): 0.97 and 0.92
Equilibrium specific to non-specific partition coefficient (V3″) Temporal Cortex (Baboon A, single experiment): 0.38 and 0.46
Equilibrium specific to non-specific partition coefficient (V3″) Thalamus (Baboon A, single experiment): 2.10
Equilibrium specific to non-specific partition coefficient (V3″) Cingulate Cortex (Baboon B, single experiment): 0.30 and 0.25
Equilibrium specific to non-specific partition coefficient (V3″) Hippocampus (Baboon B, single experiment): 0.61 and 0.69
Equilibrium specific to non-specific partition coefficient (V3″) Midbrain (Baboon B, single experiment): 1.94 and 2.33
Equilibrium specific to non-specific partition coefficient (V3″) Occipital Cortex (Baboon B, single experiment): 0.18 and 0.20
Equilibrium specific to non-specific partition coefficient (V3″) Striatum (Baboon B, single experiment): 1.06 and 1.11
Equilibrium specific to non-specific partition coefficient (V3″) Temporal Cortex (Baboon B, single experiment): 0.35 and 0.37
Equilibrium specific to non-specific partition coefficient (V3″) Thalamus (Baboon B, single experiment): 2.46 and 2.58
Equilibrium specific to non-specific partition coefficient (V3″) Cingulate Cortex [2]: 0.28 ± 0.02
Equilibrium specific to non-specific partition coefficient (V3″) Hippocampus [2]: 0.69 ± 0.06
Equilibrium specific to non-specific partition coefficient (V3″) Midbrain [2]: 2.14 ± 0.16
Equilibrium specific to non-specific partition coefficient (V3″) Occipital Cortex [2]: 0.24 ± 0.06
Equilibrium specific to non-specific partition coefficient (V3″) Striatum [2]: 1.01 ± 0.08
Equilibrium specific to non-specific partition coefficient (V3″) Temporal Cortex [2]: 0.39 ± 0.05
Equilibrium specific to non-specific partition coefficient (V3″) Thalamus [2]: 2.31 ± 0.25
Thalamus to cerebellum ratio equal to true equilibrium ratio (V3″+1) [3]: 3.10
Time at which measured thalamus to cerebellum ratio equals the true equilibrium ratio (estimate of peak specific binding) [3]: 64 min
K1, average of all regions and all animals (baboons): 1.44 ± 0.40 mL/g/min
VT, average of all regions and all animals (baboons): 57.5 ± 27.5 mL/g
k2, average of all regions and all animals (baboons): 0.030 ± 0.015 min⁻¹
f2 (free fraction in the nonspecific distribution volume) (baboons, calculated from f1 and cerebellar VT): 0.32±0.04%
V3″ expressed in percentage of [^11C]McN 5652 V3″ (baboons, combining all regions): 193±35%
Mean regional peak uptake time (baboons, mean of all regions): 38 ± 19 min
Mean regional wash-out (% decrease between peak time and last scan) (baboons, mean of all regions): 32±26%
Cingulate Cortex to cerebellum activity ratio at 90 minutes [4]: 1.30 ± 0.09
Hippocampus to cerebellum activity ratio at 90 minutes [4]: 1.84 ± 0.40
Midbrain to cerebellum activity ratio at 90 minutes [4]: 3.48 ± 1.09
Occipital Cortex to cerebellum activity ratio at 90 minutes [4]: 1.26 ± 0.18
Regional uptake peak time Cerebellum [4]: 23 ± 11 min
Regional uptake peak time Cingulate Cortex [4]: 28 ± 11 min
Regional uptake peak time Hippocampus [4]: 39 ± 16 min
Regional uptake peak time Midbrain [4]: 56 ± 24 min
Regional uptake peak time Occipital Cortex [4]: 30 ± 14 min
Regional uptake peak time Striatum [4]: 44 ± 21 min
Regional uptake peak time Temporal Cortex [4]: 34 ± 14 min
Regional uptake peak time Thalamus [4]: 54 ± 22 min
Striatum to cerebellum activity ratio at 90 minutes [4]: 2.10 ± 0.24
Temporal Cortex to cerebellum activity ratio at 90 minutes [4]: 1.44 ± 0.20
Thalamus to cerebellum activity ratio at 90 minutes [4]: 3.51 ± 0.72
Total brain uptake at 45 min (baboons, region encompassing the entire brain): 0.016±0.002 % ID g^−1
In vivo affinity relative to [^11C]DASB (times higher) (from Bmax/KD ratios, assuming same number of binding sites): 3.3 times
Regional activity wash-out: % decrease from peak to last scan, Cerebellum [5]: 48 ± 28%
Regional activity wash-out: % decrease from peak to last scan, Cingulate Cortex [5]: 43 ± 27%
Regional activity wash-out: % decrease from peak to last scan, Hippocampus [5]: 26 ± 27%
Regional activity wash-out: % decrease from peak to last scan, Midbrain [5]: 16 ± 22%
Regional activity wash-out: % decrease from peak to last scan, Occipital Cortex [5]: 42 ± 27%
Regional activity wash-out: % decrease from peak to last scan, Striatum [5]: 29 ± 31%
Regional activity wash-out: % decrease from peak to last scan, Temporal Cortex [5]: 36 ± 29%
Regional activity wash-out: % decrease from peak to last scan, Thalamus [5]: 18 ± 25%
K1 Cerebellum [6]: 1.52 ± 0.49 mL/g/min
K1 Cingulate Cortex [6]: 1.48 ± 0.40 mL/g/min
K1 Hippocampus [6]: 1.15 ± 0.35 mL/g/min
K1 Midbrain [6]: 1.57 ± 0.41 mL/g/min
K1 Occipital Cortex [6]: 1.35 ± 0.37 mL/g/min
K1 Striatum [6]: 1.48 ± 0.48 mL/g/min
K1 Temporal Cortex [6]: 1.25 ± 0.34 mL/g/min
K1 Thalamus [6]: 1.68 ± 0.42 mL/g/min
K2 Cerebellum [6]: 0.051 ± 0.021 min⁻¹
K2 Cingulate Cortex [6]: 0.039 ± 0.012 min⁻¹
K2 Hippocampus [6]: 0.023 ± 0.008 min⁻¹
K2 Midbrain [6]: 0.017 ± 0.006 min⁻¹
K2 Occipital Cortex [6]: 0.036 ± 0.011 min⁻¹
K2 Striatum [6]: 0.025 ± 0.010 min⁻¹
K2 Temporal Cortex [6]: 0.030 ± 0.010 min⁻¹
K2 Thalamus [6]: 0.017 ± 0.006 min⁻¹
VT Cerebellum (VT CER, nonspecific distribution volume) [6]: 30.6 ± 3.9 mL/g
VT Cingulate Cortex [6]: 39.0 ± 4.7 mL/g
VT Hippocampus [6]: 51.5 ± 6.1 mL/g
VT Midbrain [6]: 96.3 ± 15.3 mL/g
VT Occipital Cortex [6]: 37.9 ± 3.6 mL/g
VT Striatum [6]: 61.9 ± 10.4 mL/g
VT Temporal Cortex [6]: 42.4 ± 4.5 mL/g
VT Thalamus [6]: 101.9 ± 20.4 mL/g
